# In ChEMBL document CHEMBL4219271, “Synthesis and anti-proliferative activity of allogibberic acid derivatives containing 1,2,3-triazole pharmacophore” (Bioorg Med Chem Lett, 2018):
# How the values were obtained:
# HL-60 = assay: Cytotoxicity against human HL60 cells assessed as decrease in cell viability after 4 days by MTT assay; format: functional, cell-based; conditions: HL-60, 96 h
# SMMC-7721 [1] = assay: Cytotoxicity against human SMMC7721 cells assessed as decrease in cell viability after 4 days by MTT assay; format: functional, cell-based; conditions: SMMC-7721, 96 h
# A549 = assay: Cytotoxicity against human A549 cells assessed as decrease in cell viability after 4 days by MTT assay; format: functional, cell-based; conditions: A549, 96 h
# MCF7 [2] = assay: Cytotoxicity against human MCF7 cells assessed as decrease in cell viability after 4 days by MTT assay; format: functional, cell-based; conditions: MCF7, 96 h
# SW480 [3] = assay: Cytotoxicity against human SW480 cells assessed as decrease in cell viability after 4 days by MTT assay; format: functional, cell-based; conditions: SW480, 96 h
# MCF7 [4] = assay: Potency index, ratio of cisplatin IC50 to compound IC50 for human MCF7 cells; format: functional
# SW480 [5] = assay: Potency index, ratio of cisplatin IC50 to compound IC50 for human SW480 cells; format: functional
# SMMC-7721 [6] = assay: Induction of apoptosis in human SMMC7721 cells assessed as viable cells at 0.425 uM after 48 hrs by Annexin V-FITC/PI double staining based flow cytometry (reference value: 100%); format: functional; conditions: SMMC-7721, 48 h, read-out: Activity
# SMMC-7721 [7] = assay: Induction of apoptosis in human SMMC7721 cells assessed as early apoptotic cells at 0.425 uM after 48 hrs by Annexin V-FITC/PI double staining based flow cytometry (reference value: 0.035%); format: functional
# SMMC-7721 [8] = assay: Induction of apoptosis in human SMMC7721 cells assessed as late apoptotic cells at 0.425 uM after 48 hrs by Annexin V-FITC/PI double staining based flow cytometry (reference value: 0%); format: functional
# SMMC-7721 [9] = assay: Induction of apoptosis in human SMMC7721 cells assessed as necrotic cells at 0.425 uM after 48 hrs by Annexin V-FITC/PI double staining based flow cytometry (reference value: 0%); format: functional
# SMMC-7721 [10] = assay: Induction of apoptosis in human SMMC7721 cells assessed as viable cells at 0.85 uM after 48 hrs by Annexin V-FITC/PI double staining based flow cytometry (reference value: 100%); format: functional; conditions: SMMC-7721, 48 h, read-out: Activity
# SMMC-7721 [11] = assay: Induction of apoptosis in human SMMC7721 cells assessed as early apoptotic cells at 0.85 uM after 48 hrs by Annexin V-FITC/PI double staining based flow cytometry (reference value: 0.035%); format: functional
# SMMC-7721 [12] = assay: Induction of apoptosis in human SMMC7721 cells assessed as late apoptotic cells at 0.85 uM after 48 hrs by Annexin V-FITC/PI double staining based flow cytometry (reference value: 0%); format: functional
# SMMC-7721 [13] = assay: Induction of apoptosis in human SMMC7721 cells assessed as necrotic cells at 0.85 uM after 48 hrs by Annexin V-FITC/PI double staining based flow cytometry (reference value: 0%); format: functional
# SMMC-7721 [14] = assay: Induction of apoptosis in human SMMC7721 cells assessed as viable cells at 1.7 uM after 48 hrs by Annexin V-FITC/PI double staining based flow cytometry (reference value: 100%); format: functional; conditions: SMMC-7721, 48 h, read-out: Activity
# SMMC-7721 [15] = assay: Induction of apoptosis in human SMMC7721 cells assessed as early apoptotic cells at 1.7 uM after 48 hrs by Annexin V-FITC/PI double staining based flow cytometry (reference value: 0.035%); format: functional
# SMMC-7721 [16] = assay: Induction of apoptosis in human SMMC7721 cells assessed as late apoptotic cells at 1.7 uM after 48 hrs by Annexin V-FITC/PI double staining based flow cytometry (reference value: 0%); format: functional
# SMMC-7721 [17] = assay: Induction of apoptosis in human SMMC7721 cells assessed as necrotic cells at 1.7 uM after 48 hrs by Annexin V-FITC/PI double staining based flow cytometry (reference value: 0%); format: functional
# SMMC-7721 [18] = assay: Induction of apoptosis in human SMMC7721 cells assessed as viable cells at 3.4 uM after 48 hrs by Annexin V-FITC/PI double staining based flow cytometry (reference value: 100%); format: functional; conditions: SMMC-7721, 48 h, read-out: Activity
# SMMC-7721 [19] = assay: Induction of apoptosis in human SMMC7721 cells assessed as early apoptotic cells at 3.4 uM after 48 hrs by Annexin V-FITC/PI double staining based flow cytometry (reference value: 0.035%); format: functional
# SMMC-7721 [20] = assay: Induction of apoptosis in human SMMC7721 cells assessed as late apoptotic cells at 3.4 uM after 48 hrs by Annexin V-FITC/PI double staining based flow cytometry (reference value: 0%); format: functional
# SMMC-7721 [21] = assay: Induction of apoptosis in human SMMC7721 cells assessed as necrotic cells at 3.4 uM after 48 hrs by Annexin V-FITC/PI double staining based flow cytometry (reference value: 0%); format: functional
# SMMC-7721 [22] = assay: Cell cycle arrest in human SMMC7721 cells assessed as accumulation at S phase after 24 hrs by propidium iodide staining based flow cytometry; format: functional
# SMMC-7721 [23] = assay: Cell cycle arrest in human SMMC7721 cells assessed as accumulation at G0/G1 phase at 0.425 uM after 24 hrs by propidium iodide staining based flow cytometry (reference value: 77.85 +/- 1.90%); format: functional
# SMMC-7721 [24] = assay: Cell cycle arrest in human SMMC7721 cells assessed as accumulation at G0/G1 phase at 0.85 uM after 24 hrs by propidium iodide staining based flow cytometry (reference value: 77.85 +/- 1.90%); format: functional
# SMMC-7721 [25] = assay: Cell cycle arrest in human SMMC7721 cells assessed as accumulation at G0/G1 phase at 1.7 uM after 24 hrs by propidium iodide staining based flow cytometry (reference value: 77.85 +/- 1.90%); format: functional
# SMMC-7721 [26] = assay: Cell cycle arrest in human SMMC7721 cells assessed as accumulation at G0/G1 phase at 3.4 uM after 24 hrs by propidium iodide staining based flow cytometry (reference value: 77.85 +/- 1.90%); format: functional
# SMMC-7721 [27] = assay: Cell cycle arrest in human SMMC7721 cells assessed as accumulation at S phase at 0.425 uM after 24 hrs by propidium iodide staining based flow cytometry (reference value: 13.71 +/- 0.62%); format: functional
# SMMC-7721 [28] = assay: Cell cycle arrest in human SMMC7721 cells assessed as accumulation at S phase at 0.85 uM after 24 hrs by propidium iodide staining based flow cytometry (reference value: 13.71 +/- 0.62%); format: functional
# SMMC-7721 [29] = assay: Cell cycle arrest in human SMMC7721 cells assessed as accumulation at S phase at 1.7 uM after 24 hrs by propidium iodide staining based flow cytometry (reference value: 13.71 +/- 0.62%); format: functional
# SMMC-7721 [30] = assay: Cell cycle arrest in human SMMC7721 cells assessed as accumulation at S phase at 3.4 uM after 24 hrs by propidium iodide staining based flow cytometry (reference value: 13.71 +/- 0.62%); format: functional
# SMMC-7721 [31] = assay: Cell cycle arrest in human SMMC7721 cells assessed as accumulation at G2/M phase at 0.425 uM after 24 hrs by propidium iodide staining based flow cytometry (reference value: 5.72 +/- 0.59%); format: functional
# SMMC-7721 [32] = assay: Cell cycle arrest in human SMMC7721 cells assessed as accumulation at G2/M phase at 0.85 uM after 24 hrs by propidium iodide staining based flow cytometry (reference value: 5.72 +/- 0.59%); format: functional
# SMMC-7721 [33] = assay: Cell cycle arrest in human SMMC7721 cells assessed as accumulation at G2/M phase at 1.7 uM after 24 hrs by propidium iodide staining based flow cytometry (reference value: 5.72 +/- 0.59%); format: functional
# SMMC-7721 [34] = assay: Cell cycle arrest in human SMMC7721 cells assessed as accumulation at G2/M phase at 3.4 uM after 24 hrs by propidium iodide staining based flow cytometry (reference value: 5.72 +/- 0.59%); format: functional
compound,measurement,setting,value
C=C1C(=O)[C@]23C[C@@]1(O)CC[C@H]2c1ccc(OS(=O)(=O)c2ccc(C)cc2)c(C)c1[C@@H]3Cn1cc(-c2ccc(F)cc2)nn1,IC50,HL-60,1290 nM
same,IC50,SMMC-7721 [1],4280 nM
same,IC50,A549,1950 nM
same,IC50,MCF7 [2],330 nM
same,IC50,SW480 [3],1630 nM
same,Ratio IC50,MCF7 [4],35
C=C1C(=O)[C@]23C[C@@]1(O)CC[C@H]2c1ccc(OS(=O)(=O)c2ccc(C)cc2)c(C)c1[C@@H]3Cn1cc(-c2ccc(Br)cc2)nn1,IC50,HL-60,1020 nM
same,IC50,SMMC-7721 [1],4320 nM
same,IC50,A549,1630 nM
same,IC50,MCF7 [2],250 nM
same,IC50,SW480 [3],1590 nM
same,Ratio IC50,MCF7 [4],46
C=C1C(=O)[C@]23C[C@@]1(O)CC[C@H]2c1ccc(OS(=O)(=O)c2ccc(C)cc2)c(C)c1[C@@H]3Cn1cc(-c2ccc(Cl)cc2)nn1,IC50,HL-60,1260 nM
same,IC50,SMMC-7721 [1],6180 nM
same,IC50,A549,1870 nM
same,IC50,MCF7 [2],1440 nM
same,IC50,SW480 [3],2390 nM
same,Ratio IC50,MCF7 [4],8
C=C1C(=O)[C@]23C[C@@]1(O)CC[C@H]2c1ccc(O)c(C)c1[C@@H]3Cn1cc(-c2ccc(F)cc2)nn1,IC50,HL-60,660 nM
same,IC50,SMMC-7721 [1],850 nM
same,IC50,A549,940 nM
same,IC50,MCF7 [2],1700 nM
same,IC50,SW480 [3],250 nM
same,Ratio IC50,SW480 [5],33
same,viability at 0.425 µM,SMMC-7721 [6],80.9%
same,Activity,SMMC-7721 [7],3.31%
same,Activity,SMMC-7721 [8],12.7%
same,Activity,SMMC-7721 [9],3.14%
same,viability at 0.85 µM,SMMC-7721 [10],79.8%
same,Activity,SMMC-7721 [11],7.83%
same,Activity,SMMC-7721 [12],10.7%
same,Activity,SMMC-7721 [13],1.72%
same,viability at 1.7 µM,SMMC-7721 [14],43.4%
same,Activity,SMMC-7721 [15],31.9%
same,Activity,SMMC-7721 [16],22.7%
same,Activity,SMMC-7721 [17],1.97%
same,viability at 3.4 µM,SMMC-7721 [18],2.17%
same,Activity,SMMC-7721 [19],90.4%
same,Activity,SMMC-7721 [20],7.41%
same,Activity,SMMC-7721 [21],0.053%
same,Activity,SMMC-7721 [22],Dose-dependent effect
same,Activity,SMMC-7721 [23],78.27%
same,Activity,SMMC-7721 [24],74.23%
same,Activity,SMMC-7721 [25],70.87%
same,Activity,SMMC-7721 [26],71.54%
same,Activity,SMMC-7721 [27],13.92%
same,Activity,SMMC-7721 [28],17.38%
same,Activity,SMMC-7721 [29],19.35%
same,Activity,SMMC-7721 [30],22.73%
same,Activity,SMMC-7721 [31],6.24%
same,Activity,SMMC-7721 [32],7.7%
same,Activity,SMMC-7721 [33],6.05%
same,Activity,SMMC-7721 [34],0.89%
C=C1C(=O)[C@]23C[C@@]1(O)CC[C@H]2c1ccc(OS(=O)(=O)c2ccc(C)cc2)c(C)c1[C@@H]3Cn1cc(-c2ccc(C)cc2)nn1,IC50,HL-60,1110 nM
same,IC50,SMMC-7721 [1],4410 nM
same,IC50,A549,1830 nM
same,IC50,MCF7 [2],320 nM
same,IC50,SW480 [3],1460 nM
same,Ratio IC50,MCF7 [4],36
C=C1C(=O)[C@]23C[C@@]1(O)CC[C@H]2c1ccc(OS(=O)(=O)c2ccc(C)cc2)c(C)c1[C@@H]3Cn1cc(-c2ccccn2)nn1,IC50,HL-60,1810 nM
same,IC50,SMMC-7721 [1],2830 nM
same,IC50,A549,2310 nM
same,IC50,MCF7 [2],320 nM
same,IC50,SW480 [3],1970 nM
same,Ratio IC50,MCF7 [4],36
C=C1C(=O)[C@]23C[C@@]1(O)CC[C@H]2c1ccc(OS(=O)(=O)c2ccc(C)cc2)c(C)c1[C@@H]3Cn1cc(-c2ccc(OC)cc2)nn1,IC50,HL-60,1020 nM
same,IC50,SMMC-7721 [1],1720 nM
same,IC50,A549,1470 nM
same,IC50,MCF7 [2],310 nM
same,IC50,SW480 [3],1640 nM
same,Ratio IC50,MCF7 [4],37
C=C1C(=O)[C@]23C[C@@]1(O)CC[C@H]2c1ccc(O)c(C)c1[C@@H]3Cn1cc(-c2ccc(C)cc2)nn1,IC50,HL-60,830 nM
same,IC50,SMMC-7721 [1],920 nM
same,IC50,A549,1260 nM
same,IC50,MCF7 [2],370 nM
same,IC50,SW480 [3],330 nM
same,Ratio IC50,SW480 [5],25
